These are literature values, as cited in US10421964B2, “UNA oligomers and compositions for treating amyloidosis” (Arcturus Therapeutics, Inc., priority 2015, dated 2019).

For the data set the following is noted: lipid; cited from earlier work.

The term pKa denotes the pH at which an ionisable group is half protonated. Consider `CCCCCC/C=C\COC(=O)CCCCCCCN(CCCCCCCC(=O)OC/C=C\CCCCCC)C(=O)CSCCCN(CC)CC` [ATX- 008], for which the pKa is 10.

Turning to `CCCCCC/C=C\COC(=O)CCCCCCCN(CCCCCCCC(=O)OC/C=C\CCCCCC)C(=O)SCCCN(CC)CC` [ATX- 012], the pKa was 10.
